# Calls of active or inactive are those of the source.
# Experiments:
# Genome polyprotein = Genome polyprotein (dengue virus type 2, UniProt P29990); test: flavivirus cap methylation enzyme inhibition – biochemical, confirmation dose response, primary screen (AID 588689); type: functional
# Aminopeptidase N = target: T1, Aminopeptidase N (Plasmodium falciparum FcB1/Columbia, UniProt O96935); test: malaria alanyl aminopeptidase activity blockers – biochemical, fluorogenic H-Leu-NHMec substrate, 1536-well (AID 1445); parameters: species or system Plasmodium falciparum 3D7, 3D7
# T1 sequence (O96935 whole entry): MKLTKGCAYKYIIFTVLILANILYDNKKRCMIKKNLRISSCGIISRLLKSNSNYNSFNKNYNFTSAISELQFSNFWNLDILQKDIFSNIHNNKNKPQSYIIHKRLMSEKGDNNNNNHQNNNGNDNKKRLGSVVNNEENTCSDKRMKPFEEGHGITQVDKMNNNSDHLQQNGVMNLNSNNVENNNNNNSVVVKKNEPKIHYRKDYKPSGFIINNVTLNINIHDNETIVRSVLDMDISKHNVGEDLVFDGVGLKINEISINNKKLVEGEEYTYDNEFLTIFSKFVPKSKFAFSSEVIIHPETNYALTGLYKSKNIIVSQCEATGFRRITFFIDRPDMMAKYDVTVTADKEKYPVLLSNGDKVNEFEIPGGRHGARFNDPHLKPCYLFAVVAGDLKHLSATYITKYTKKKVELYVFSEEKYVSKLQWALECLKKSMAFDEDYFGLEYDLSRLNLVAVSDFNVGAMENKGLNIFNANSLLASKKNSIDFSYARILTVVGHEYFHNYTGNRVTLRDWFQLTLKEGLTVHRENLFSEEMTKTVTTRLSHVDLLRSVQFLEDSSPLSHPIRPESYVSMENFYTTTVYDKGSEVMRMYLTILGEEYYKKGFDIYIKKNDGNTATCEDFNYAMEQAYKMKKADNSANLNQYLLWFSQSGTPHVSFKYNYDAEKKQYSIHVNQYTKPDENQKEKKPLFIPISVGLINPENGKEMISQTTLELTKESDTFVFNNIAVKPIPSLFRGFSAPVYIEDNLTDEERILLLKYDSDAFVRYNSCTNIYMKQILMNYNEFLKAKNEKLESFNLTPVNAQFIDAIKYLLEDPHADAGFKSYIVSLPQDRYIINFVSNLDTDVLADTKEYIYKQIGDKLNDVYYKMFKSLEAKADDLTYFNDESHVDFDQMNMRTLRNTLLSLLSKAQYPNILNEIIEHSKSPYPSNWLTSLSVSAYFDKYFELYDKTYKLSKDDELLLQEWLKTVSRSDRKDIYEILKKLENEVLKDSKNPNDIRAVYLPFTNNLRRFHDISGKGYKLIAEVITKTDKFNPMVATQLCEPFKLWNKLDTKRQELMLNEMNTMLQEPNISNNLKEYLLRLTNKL
# Cytochrome P450 3A4 = Cytochrome P450 3A4 (Homo sapiens, UniProt P08684); conditions: Potency;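 note: confirmatory qHTS run detecting inhibitors and substrates of CYP3A4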
# Sequence of Cytochrome P450 3A4 (P08684 whole entry): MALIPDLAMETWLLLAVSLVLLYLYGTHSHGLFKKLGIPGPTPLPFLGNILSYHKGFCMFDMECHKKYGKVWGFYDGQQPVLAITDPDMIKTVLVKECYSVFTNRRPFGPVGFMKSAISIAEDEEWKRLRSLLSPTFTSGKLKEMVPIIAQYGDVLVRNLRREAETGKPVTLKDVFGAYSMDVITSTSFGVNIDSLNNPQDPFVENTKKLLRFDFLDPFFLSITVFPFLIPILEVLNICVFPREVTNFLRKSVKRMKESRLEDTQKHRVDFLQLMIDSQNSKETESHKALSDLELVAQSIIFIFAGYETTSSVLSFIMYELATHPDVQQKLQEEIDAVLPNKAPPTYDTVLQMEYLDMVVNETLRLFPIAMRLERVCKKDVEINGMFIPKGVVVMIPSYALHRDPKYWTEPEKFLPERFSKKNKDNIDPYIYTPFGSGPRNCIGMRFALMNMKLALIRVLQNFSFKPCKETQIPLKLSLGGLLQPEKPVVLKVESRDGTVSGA
# [1] = Trypanosoma cruzi growth suppression in host cells – NIH3T3 host cells, beta-gal luminescence, confirmation (AID 2044); type: functional, cell-based;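 note: intracellular parasites grown in NIH/3T3 mouse fibroblasts as host cells; luminescent beta-galactosidase reporter signal from transgenic T. cruzi replicating inside host cells; inhibitors lower the luminescence signal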
# [2] = Luminescence Cell-Based Dose Retest to Confirm Inhibitors of Cancer Stem Cells. [Related pubchem assays (depositor defined):AID2717, AID2721]; type: functional; conditions: Homo sapiens
# [3] = viability of uninfected HEp-2 cells – cell-based, HTS, cytotoxicity control for RSV inhibitor project, dose response (AID 2410); type: functional; conditions: human respiratory syncytial virus
# [4] = microbe, parasite or virus in culture; type: functional; conditions: Mycobacterium tuberculosis
# [5] = NIH3T3 cell viability loss – ATP luminescence, mouse fibroblasts, counter-screen, dose response (AID 2010); type: functional, cell-based;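 note: cells exposed to compound for about 90 hours before reading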
# [6] = HIV-1 Vif–A3G interaction blockers – biochemical, TR-FRET, GST-Vif 1-94, biotin-A3G peptide, dose response retest, primary screen (AID 1117319); type: functional;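 note: TR-FRET signal of purified GST-Vif binding a biotinylated A3G peptide; inhibitors lower the FRET signal by blocking Vif and A3G binding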
# [7] = target: T2, Rac GTPase-activating protein 1 (Homo sapiens, UniProt Q9H0H5); test: blockers of MgcRacGAP-driven Rac1 GTP hydrolysis – biochemical, ADP Hunter fluorescence, primary and confirmatory, confirmation (AID 624330); type: functional
# T2 sequence (Q9H0H5 whole entry): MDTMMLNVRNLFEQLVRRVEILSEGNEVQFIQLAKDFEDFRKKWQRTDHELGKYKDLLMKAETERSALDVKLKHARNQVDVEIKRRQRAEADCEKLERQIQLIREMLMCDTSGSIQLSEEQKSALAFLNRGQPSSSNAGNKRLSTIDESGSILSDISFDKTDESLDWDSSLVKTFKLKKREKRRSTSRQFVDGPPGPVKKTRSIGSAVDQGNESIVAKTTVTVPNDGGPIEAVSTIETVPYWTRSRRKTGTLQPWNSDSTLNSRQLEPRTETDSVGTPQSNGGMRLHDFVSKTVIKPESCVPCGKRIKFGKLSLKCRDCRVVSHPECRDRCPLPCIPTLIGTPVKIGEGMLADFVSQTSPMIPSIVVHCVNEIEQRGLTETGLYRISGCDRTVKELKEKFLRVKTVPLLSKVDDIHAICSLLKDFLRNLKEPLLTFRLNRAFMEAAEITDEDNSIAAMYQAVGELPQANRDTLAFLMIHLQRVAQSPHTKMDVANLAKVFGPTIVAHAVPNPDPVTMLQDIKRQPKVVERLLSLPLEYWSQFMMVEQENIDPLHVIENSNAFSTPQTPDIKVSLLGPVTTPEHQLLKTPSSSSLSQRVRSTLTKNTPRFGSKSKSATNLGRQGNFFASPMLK
# [8] = test system: Streptococcus sp. 'group A'; test: Streptococcus pyogenes SK(-)GAS viability under kanamycin – luminescence, BacTiterGlo, confirmation, counter-screen for streptokinase expression inhibitor project, dose response (AID 1900); type: functional, organism-based
# Streptococcus = test: GAS UMAA2166 growth inhibition – luminescence, BacTiterGlo, counter-screen for streptokinase expression inhibitor project, dose response (AID 1915); type: functional, organism-based;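 note: potency for reduction of bacterial viability or growth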
# Streptokinase A = target: T3, Streptokinase A (Streptococcus pyogenes serotype M1, UniProt P10520); test: viability-normalized secreted streptokinase activity reduction – plasminogen activation absorbance, OD405, dose response (AID 1914); type: functional, Streptococcus pyogenes M1 GAS;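 note: secreted streptokinase activity via plasminogen activation per viability signal from cell pellet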
# T3 sequence (P10520 whole entry): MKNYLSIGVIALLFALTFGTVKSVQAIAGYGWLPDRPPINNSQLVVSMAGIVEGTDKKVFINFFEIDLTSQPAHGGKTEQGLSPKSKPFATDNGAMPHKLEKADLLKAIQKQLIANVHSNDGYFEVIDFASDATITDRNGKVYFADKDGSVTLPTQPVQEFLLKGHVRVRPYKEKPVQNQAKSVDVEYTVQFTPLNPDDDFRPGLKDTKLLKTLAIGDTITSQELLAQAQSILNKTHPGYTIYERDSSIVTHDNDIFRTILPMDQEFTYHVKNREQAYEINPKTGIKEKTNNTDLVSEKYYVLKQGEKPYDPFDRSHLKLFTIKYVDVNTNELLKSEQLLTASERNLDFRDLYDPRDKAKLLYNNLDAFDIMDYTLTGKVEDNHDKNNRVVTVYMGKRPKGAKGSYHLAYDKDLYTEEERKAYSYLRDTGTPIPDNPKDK
# [9] = target: T4, High affinity choline transporter 1 (Homo sapiens, UniProt Q9GZV3); test: human choline transporter blockers, potency – cell-based, 5-point CRC, membrane potential dye, dose response (AID 504840); type: functional
# T4 sequence (Q9GZV3 whole entry): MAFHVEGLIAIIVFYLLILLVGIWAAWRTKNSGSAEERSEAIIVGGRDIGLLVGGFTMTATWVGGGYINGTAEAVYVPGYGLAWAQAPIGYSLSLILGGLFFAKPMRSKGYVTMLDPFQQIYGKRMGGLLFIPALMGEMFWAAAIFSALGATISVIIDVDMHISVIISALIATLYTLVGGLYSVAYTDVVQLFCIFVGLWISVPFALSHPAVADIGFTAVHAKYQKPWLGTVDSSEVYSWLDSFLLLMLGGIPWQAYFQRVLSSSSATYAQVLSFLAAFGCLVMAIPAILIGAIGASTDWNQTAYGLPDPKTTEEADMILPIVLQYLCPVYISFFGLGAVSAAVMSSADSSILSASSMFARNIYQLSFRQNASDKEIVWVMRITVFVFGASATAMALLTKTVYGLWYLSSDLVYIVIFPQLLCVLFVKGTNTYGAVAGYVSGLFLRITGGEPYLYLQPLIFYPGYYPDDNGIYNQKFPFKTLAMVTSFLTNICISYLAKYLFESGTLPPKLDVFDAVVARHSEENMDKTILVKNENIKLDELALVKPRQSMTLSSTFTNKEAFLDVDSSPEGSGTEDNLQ
# Fatty acid synthase [10] = target: T5, Fatty acid synthase (Homo sapiens, UniProt P49327); test: inhibition of human FAS-TE enzyme activity – biochemical, kinetic fluorescence intensity, dose response (AID 624326); type: functional;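 note: rate of fluorescence rise from hydrolysis of a fluorogenic O-methyl fluorescein ester substrate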
# T5 sequence (P49327 whole entry): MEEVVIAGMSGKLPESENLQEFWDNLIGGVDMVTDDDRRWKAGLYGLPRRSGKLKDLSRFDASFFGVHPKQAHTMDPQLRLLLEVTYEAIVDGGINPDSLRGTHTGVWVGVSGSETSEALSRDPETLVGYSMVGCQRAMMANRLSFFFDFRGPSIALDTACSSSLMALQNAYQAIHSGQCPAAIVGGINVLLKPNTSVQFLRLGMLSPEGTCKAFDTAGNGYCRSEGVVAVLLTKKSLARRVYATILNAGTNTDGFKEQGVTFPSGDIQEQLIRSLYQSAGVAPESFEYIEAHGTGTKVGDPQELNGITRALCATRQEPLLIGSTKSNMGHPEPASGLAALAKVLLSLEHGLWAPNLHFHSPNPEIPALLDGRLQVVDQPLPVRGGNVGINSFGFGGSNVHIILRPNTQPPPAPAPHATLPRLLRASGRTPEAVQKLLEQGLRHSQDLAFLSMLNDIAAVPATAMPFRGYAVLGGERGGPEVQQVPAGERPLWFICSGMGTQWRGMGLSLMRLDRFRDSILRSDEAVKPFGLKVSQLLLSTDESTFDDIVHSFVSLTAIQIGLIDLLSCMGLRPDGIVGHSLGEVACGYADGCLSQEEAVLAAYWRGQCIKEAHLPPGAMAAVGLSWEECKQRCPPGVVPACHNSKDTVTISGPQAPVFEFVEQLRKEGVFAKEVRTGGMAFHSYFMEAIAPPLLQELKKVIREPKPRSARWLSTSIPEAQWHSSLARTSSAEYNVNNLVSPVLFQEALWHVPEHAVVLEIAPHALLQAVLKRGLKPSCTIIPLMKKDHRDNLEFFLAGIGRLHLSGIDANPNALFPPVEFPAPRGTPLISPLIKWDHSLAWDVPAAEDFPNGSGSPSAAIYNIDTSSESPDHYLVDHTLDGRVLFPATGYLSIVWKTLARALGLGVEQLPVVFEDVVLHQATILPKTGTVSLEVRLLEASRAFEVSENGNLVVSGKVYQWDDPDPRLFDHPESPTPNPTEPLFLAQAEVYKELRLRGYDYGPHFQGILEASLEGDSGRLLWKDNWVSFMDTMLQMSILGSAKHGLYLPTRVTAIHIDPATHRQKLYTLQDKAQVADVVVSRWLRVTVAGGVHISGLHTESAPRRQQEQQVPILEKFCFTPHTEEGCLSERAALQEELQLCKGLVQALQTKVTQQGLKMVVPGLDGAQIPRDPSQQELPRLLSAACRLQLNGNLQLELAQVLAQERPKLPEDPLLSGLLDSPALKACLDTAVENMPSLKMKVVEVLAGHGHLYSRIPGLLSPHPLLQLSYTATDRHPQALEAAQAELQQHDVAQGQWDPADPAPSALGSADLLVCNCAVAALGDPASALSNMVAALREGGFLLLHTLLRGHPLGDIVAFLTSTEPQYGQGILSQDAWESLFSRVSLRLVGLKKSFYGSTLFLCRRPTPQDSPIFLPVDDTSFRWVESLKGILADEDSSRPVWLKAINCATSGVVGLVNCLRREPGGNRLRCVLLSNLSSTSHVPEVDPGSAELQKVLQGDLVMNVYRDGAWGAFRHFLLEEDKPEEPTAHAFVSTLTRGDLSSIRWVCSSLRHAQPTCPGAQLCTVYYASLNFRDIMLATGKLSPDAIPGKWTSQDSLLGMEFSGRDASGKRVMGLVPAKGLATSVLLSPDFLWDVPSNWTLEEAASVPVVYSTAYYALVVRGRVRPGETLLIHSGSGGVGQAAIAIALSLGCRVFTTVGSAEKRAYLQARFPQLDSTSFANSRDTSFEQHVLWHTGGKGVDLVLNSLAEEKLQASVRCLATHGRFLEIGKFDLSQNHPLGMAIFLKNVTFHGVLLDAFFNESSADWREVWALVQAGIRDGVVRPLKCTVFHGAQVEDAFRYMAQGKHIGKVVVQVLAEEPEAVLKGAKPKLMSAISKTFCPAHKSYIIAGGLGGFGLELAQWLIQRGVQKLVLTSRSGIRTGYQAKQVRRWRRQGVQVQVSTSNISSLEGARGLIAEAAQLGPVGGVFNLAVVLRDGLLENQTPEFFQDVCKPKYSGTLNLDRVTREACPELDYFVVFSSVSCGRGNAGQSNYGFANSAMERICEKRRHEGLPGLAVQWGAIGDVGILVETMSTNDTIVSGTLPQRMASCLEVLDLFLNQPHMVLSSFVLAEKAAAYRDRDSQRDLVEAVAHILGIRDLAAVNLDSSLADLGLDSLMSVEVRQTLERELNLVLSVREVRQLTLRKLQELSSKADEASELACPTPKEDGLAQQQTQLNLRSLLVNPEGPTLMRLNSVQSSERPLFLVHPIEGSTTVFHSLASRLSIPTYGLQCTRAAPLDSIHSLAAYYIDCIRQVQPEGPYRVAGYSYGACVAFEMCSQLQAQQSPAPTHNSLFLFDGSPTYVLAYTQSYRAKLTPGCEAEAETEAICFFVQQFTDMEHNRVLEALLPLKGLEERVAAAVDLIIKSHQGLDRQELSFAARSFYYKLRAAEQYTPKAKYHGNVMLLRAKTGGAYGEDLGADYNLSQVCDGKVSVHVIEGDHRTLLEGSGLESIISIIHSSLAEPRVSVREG
# Fatty acid synthase [11] = target: T5, Fatty acid synthase; test: inhibition of human FAS-TE enzyme activity – biochemical, endpoint fluorescence intensity, uHTS hits, dose response (AID 624327); type: functional;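 note: fluorescence from hydrolysis of an O-methyl fluorescein acyl ester substrate by the enzyme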
# cells [12] = type: functional, cell-based
# cells [13] = type: functional, cell-based; remark: listed apart in the source
# Nonstructural protein 1 = Nonstructural protein 1 (Influenza A virus, UniProt Q194T2); type: functional, Influenza A virus (A/California/07/2009(H1N1))
# Sequence of Nonstructural protein 1 (Q194T2 whole entry): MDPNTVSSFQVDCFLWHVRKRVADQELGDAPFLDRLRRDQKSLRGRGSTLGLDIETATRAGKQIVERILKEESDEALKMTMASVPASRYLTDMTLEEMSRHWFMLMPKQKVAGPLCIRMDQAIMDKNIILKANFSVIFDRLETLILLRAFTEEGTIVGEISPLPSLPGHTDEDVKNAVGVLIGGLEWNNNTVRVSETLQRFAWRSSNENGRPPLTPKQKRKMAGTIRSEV
# [14] = Vero E6 cell cytotoxicity, dose response, cytotoxicity control for non-replicating M. tuberculosis project, secondary assay (AID 492998); type: functional, VeroE6; conditions: Vero C1008
# INS1 = test: INS-1E survival protection against cytokine death – cell-based, luminescence, retest, dose response (AID 449756); type: functional; conditions: Rattus norvegicus;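 note: cell death triggered by IL-1 beta plus TNF-alpha plus IFN-gamma mixture; protective hits raise ATP signal compared with cytokine alone wells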
# [15] = HepG2 cell cytotoxicity, dose response, cytotoxicity control for non-replicating M. tuberculosis project (AID 489018); type: functional; conditions: Mycobacterium tuberculosis
# [16] = THP-1 cell cytotoxicity, dose response, cytotoxicity control for non-replicating M. tuberculosis project (AID 489025); type: functional
# cells [17] = type: functional
# Sequence of Genome polyprotein (P29990 2492-3391 limits assumed): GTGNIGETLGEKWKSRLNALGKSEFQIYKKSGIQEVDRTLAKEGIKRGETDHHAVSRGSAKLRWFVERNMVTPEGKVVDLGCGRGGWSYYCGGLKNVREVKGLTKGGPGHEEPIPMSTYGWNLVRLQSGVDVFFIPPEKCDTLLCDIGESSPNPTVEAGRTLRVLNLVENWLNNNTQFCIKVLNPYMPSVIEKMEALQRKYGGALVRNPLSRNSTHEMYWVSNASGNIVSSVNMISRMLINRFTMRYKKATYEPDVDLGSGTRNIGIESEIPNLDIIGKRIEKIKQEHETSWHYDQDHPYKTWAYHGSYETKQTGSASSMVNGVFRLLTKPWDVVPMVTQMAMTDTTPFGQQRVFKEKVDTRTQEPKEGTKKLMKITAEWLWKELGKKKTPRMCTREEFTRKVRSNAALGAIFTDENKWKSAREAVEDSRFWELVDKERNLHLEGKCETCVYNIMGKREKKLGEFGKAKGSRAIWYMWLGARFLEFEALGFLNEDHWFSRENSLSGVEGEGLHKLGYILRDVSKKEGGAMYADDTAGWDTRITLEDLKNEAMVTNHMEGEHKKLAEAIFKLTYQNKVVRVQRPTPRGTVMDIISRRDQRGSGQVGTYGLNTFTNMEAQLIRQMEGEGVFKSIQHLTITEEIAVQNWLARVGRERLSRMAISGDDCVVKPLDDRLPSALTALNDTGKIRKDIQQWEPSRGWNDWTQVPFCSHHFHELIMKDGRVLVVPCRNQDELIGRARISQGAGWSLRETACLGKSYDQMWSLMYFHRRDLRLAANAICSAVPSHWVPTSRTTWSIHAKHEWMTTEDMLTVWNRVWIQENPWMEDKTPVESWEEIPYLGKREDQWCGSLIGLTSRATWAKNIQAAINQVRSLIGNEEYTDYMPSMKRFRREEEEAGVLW
smiles,measurement,setting,value
Cc1ccc(/C=C2\SC(NS(=O)(=O)c3cccs3)=NC2=O)cc1,IC50,Genome polyprotein,71.5 µM (active)
same,IC50,Aminopeptidase N,33.1 µM (active)
Oc1ccc2c(c1)OCO2,AC50,Cytochrome P450 3A4,15.8 µM (inconclusive)
CCc1ccc2nc(N(CCCN(C)C)C(=O)c3ccc(S(=O)(=O)N4CCCc5ccccc54)cc3)sc2c1,EC50,[1],0.187 µM (active)
same,AC50,[2],6.44 µM (active)
same,CC50,[3],12.7 µM (active)
same,CC50,[4],13.8 µM (active)
same,EC50,[5],9.15 µM (active)
Cc1cccc(C(=O)NC2CCN(C(=S)NCc3ccco3)CC2)c1,IC50,Aminopeptidase N,113 µM (active)
COc1cc2c(cc1N)-c1ccc(N)cc1C2,IC50,[6],> 100 µM (active)
same,IC50,[7],10.7 µM (active)
CC1(C)Cc2c(cnn2-c2ccccc2)-c2c1c1ccccc1n2CC(O)CCl (stereo unspecified),EC50,[8],8.41 µM (active)
same,EC50,Streptococcus,> 150 µM (not active)
same,CC50,[4],> 40 µM (active)
same,EC50,Streptokinase A,13.7 µM (active)
Cc1ccc(Cl)cc1N1CCN(Cc2nc(O)c3sccc3n2)CC1,CC50,[4],> 40 µM (active)
Cc1ccccc1N(CC(=O)NC(C)(C)C)C(=O)C[S+]([O-])CC(=O)Nc1ccc2c(c1)OCO2 (stereo unspecified),IC50,Aminopeptidase N,79.3 µM (active)
COCCNC(=O)C1(CC(C)C)C=CCN1C(=O)c1ccccc1 (stereo unspecified),AC50,Cytochrome P450 3A4,20 µM (inconclusive)
O=C(CN1C(=O)S/C(=C\c2cccc(Cl)c2)C1=O)NCCCn1ccnc1,IC50,[9],20.9 µM (active)
CCOC(=O)C(Cc1ccc(O)cc1)NC(C)=O (stereo unspecified) [ACETYL TYROSINE ETHYL ESTER],AC50,Cytochrome P450 3A4,25.1 µM (inconclusive)
O=C(Cn1cnc([N+](=O)[O-])n1)N/N=C/c1cc(Cl)ccc1O,IC50,Fatty acid synthase [10],2.94 µM (active)
same,IC50,Fatty acid synthase [11],1.22 µM (active)
same,EC50,cells [12],14.5 µM (active)
same,EC50,cells [13],> 350 µM (not active)
same,IC50,Nonstructural protein 1,12.3 µM (active)
same,IC50,Aminopeptidase N,13.3 µM (active)
Oc1ccccc1/C=N/Nc1ncc(Br)cn1,CC50,[14],3.26 µM (active)
same,AC50,INS1,2.77 µM (active)
same,CC50,[15],> 20 µM (active)
same,EC50,cells [12],7.46 µM (active)
same,EC50,cells [13],23 µM (active)
same,CC50,[16],6.62 µM (active)
same,IC50,cells [17],7.9 µM (active)
COc1c2c(c(CC=C(C)C)c3oc(=O)c(-c4ccc(O)cc4)c(O)c13)OC(C)(C)C=C2 [LONCHOCARPIC ACID],AC50,Cytochrome P450 3A4,12.6 µM (inconclusive)
CCCOc1ccc(C(CC(=O)O)NC(=O)c2sc3ccccc3c2Cl)cc1 (stereo unspecified),IC50,[9],7.59 µM (active)
Cc1cc(NS(=O)(=O)c2ccc(NC(=O)CSc3nc(O)c4c(C)c(C)sc4n3)cc2)no1,IC50,Genome polyprotein,81.9 µM (active)
same,IC50,Aminopeptidase N,35.8 µM (active)
CCCn1c(C)nc2c(N(CCOC)CCOC)nc(C)nc21,AC50,Cytochrome P450 3A4,15.8 µM (inconclusive)
CC(C)(C)CC(C)(C)c1ccc(OCCO)cc1 [TRITON X],AC50,Cytochrome P450 3A4,31.6 µM (inconclusive)
Cc1ccc(-n2cc(CN3CCN(Cc4nccn4C)CC3)c(-c3cccc(C)c3)n2)cc1,IC50,[9],10.5 µM (active)
O=C(NC1CCN(C(=S)NCc2ccco2)CC1)c1cccc(F)c1,IC50,Aminopeptidase N,79.9 µM (active)

# — ChEMBL document CHEMBL1201862, “PubChem BioAssay data set” (2004)
